Measured values from PubChem BioAssay (NCI).
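Five concentrations, 48 hours, 96-well plates. GI50 marks 50% less growth. TGI: concentration producing complete growth inhibition.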

Assays:
Test in all cases: NCI-60 cell line screen, 48 h
[1] = tested on: 786-0 renal
[2] = tested on: A498 renal
[3] = tested on: HL-60(TB) leukemia
[4] = tested on: IGROV1 ovarian
[5] = tested on: KM12 colon
[6] = tested on: MALME-3M melanoma
[7] = tested on: NCI-H23 lung
[8] = tested on: OVCAR-5 ovarian
[9] = tested on: RPMI-8226 leukemia
[10] = tested on: OVCAR-3 ovarian

| SMILES | TGI [1] [µM] | TGI [2] [µM] | TGI [3] [µM] | TGI [4] [µM] | TGI [5] [µM] | TGI [6] [µM] | TGI [7] [µM] | TGI [8] [µM] | TGI [9] [µM] | GI50 [2] [µM] | GI50 [3] [µM] | GI50 [4] [µM] | GI50 [5] [µM] | GI50 [6] [µM] | GI50 [7] [µM] | GI50 [10] [µM] | TGI [10] [µM] | GI50 [8] [µM] | GI50 [9] [µM] |
| --- | --- | --- | --- | --- | --- | --- | --- | --- | --- | --- | --- | --- | --- | --- | --- | --- | --- | --- | --- |
| Cc1cc(NCc2ccccc2)c2ccccc2[n+]1CCCCCCCCCC[n+]1c(C)cc(NCc2ccccc2)c2ccccc21 | 2.44 | 14.5 | 1.19 | > 100 | 0.796 | > 100 | 1.86 | 12.7 | 1.44 |  |  |  |  |  |  |  |  |  |  |
| COc1ccc(-c2nn(-c3ccc(NC(=O)Nc4cc(C(F)(F)F)cc(C(F)(F)F)c4)cc3)cc2-c2ccncc2)cc1Cl |  | 5.32 | 6.58 | > 100 | 7.73 | 7.88 | > 100 | 14.7 | 3.58 | 1.31 | 2.5 | 3.45 | 2.1 | 2.11 | 2.78 | 2.32 | 8.85 | 2.64 | 1.23 |
| COc1cccc(/C=N/n2c(C)n[nH]c2=O)c1 | > 100 | > 100 |  |  | > 100 | > 100 | > 100 | > 100 | > 100 |  |  |  |  |  |  |  | > 100 |  |  |
| Cc1cc(S(=O)(=O)Nc2nc3cc(-c4ccc(Cl)cc4)sc3c(=O)n2N)c(S)cc1Cl | > 100 |  |  | > 100 | > 100 | > 100 | > 100 | > 100 | > 100 |  |  |  |  |  |  |  | > 100 |  |  |
| COc1cc(OC)c(C2c3cc4c(cc3OC(N3CCCC3)C2C)OCO4)c(OC)c1 (centres undefined) | 53.8 |  |  | 52.8 | 30.2 |  | 59.1 | 69 | 43.1 |  |  |  |  |  |  |  | 20.5 |  |  |
| Cn1c2ccccc2c(=NNc2cccc(C(=O)O)c2)c2ccccc21 | 52 |  | 33.5 | 66.2 | 47.5 | 38.3 | 32 | 41.6 | 28.3 |  |  |  |  |  |  |  | 11.9 |  |  |
| COC(=O)C1=C(C)NC(C)=C(C(=O)OC)C1c1nc2sccn2c1[N+](=O)[O-] | > 100 | > 100 | > 100 |  | > 100 |  | > 100 | > 100 | > 100 |  |  |  |  |  |  |  | > 100 |  |  |
| CCOc1ccc(/C=C2/C(=O)N=C(NC(C)=O)N2C)cc1 | > 100 | > 100 | 71.7 | > 100 | > 100 |  | > 100 | > 100 |  |  |  |  |  |  |  |  | > 100 |  |  |
| COc1ccc(/C=C2\N=C(SC)NC2=O)cc1 | > 100 |  |  | > 100 | > 100 | > 100 | > 100 | > 100 | > 100 |  |  |  |  |  |  |  | > 100 |  |  |
| COc1ccc(C2COc3cc(O)c(O)cc3C2)cc1 (centres undefined) |  | 17.4 | 5.41 | 148 | 164 | 59.3 | 159 | 264 | 25.2 |  |  |  |  |  |  |  | 28.1 |  |  |
| Nc1ccn(C2OC(CO)C(O)C2O)c(=O)c1 (centres undefined) |  |  | > 625 | > 625 | > 625 | 365 | > 625 |  | 524 |  |  |  |  |  |  |  | > 625 |  |  |
